Results reported in patent US20150105252A1, “SUBSTITUTED PYRAZOLES AS HERBICIDES” (E I DU PONT DE NEMOURS AND COMPANY, priority 2013, published 2015).

What was measured:
[1] = tested on: ducksalad; experiment: Test C flooded paddy test; type: in vivo, Heteranthera limosa; details: Flood
Procedure, shortened: (§1)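 Under a constant 3 cm flood, test compounds went directly into the paddy water. Following 13 to 15 days of greenhouse growth, treated species and controls were compared by eye.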

[2] = tested on: barnyardgrass; experiment: Test B flood; type: in vivo, Echinochloa crus-galli; details: 250 g ai/ha, visual rating on 0 to 100 scale (0 no effect, 100 complete control), 13 to 15 days
Procedure, shortened: (§2)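 Plants were grown to the 2-leaf stage, then pots were flooded to 3 cm above the soil and compounds were applied directly into the paddy water. Water depth was held for the whole test; after 13 to 15 days in a greenhouse, injury was visually rated against untreated controls (0 = no effect, 100 = complete control).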

[3] = tested on: barnyardgrass; experiment: Test A preemergence; type: in vivo, Echinochloa crus-galli
Procedure, shortened: (§3)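 Visual injury rating, 0–100 (0 no effect, 100 complete control), vs untreated controls ~10 days after treatment in greenhouse. Pre: directed soil spray on seeded loam/sand. Post: 2–10 cm plants, 1–2 leaf stage. Formulation: non-phytotoxic solvent mix + surfactant.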

[4] = tested on: wheat; experiment: Test A preemergence; type: in vivo, Triticum aestivum
Procedure, shortened: as §3

[5] = tested on: pigweed; experiment: Test A postemergence; type: in vivo, Amaranthus retroflexus
Procedure, shortened: as §3

[6] = tested on: rice; experiment: Test B flood; type: in vivo, Oryza sativa; details: 250 g ai/ha, visual rating on 0 to 100 scale (0 no effect, 100 complete control), 13 to 15 days
Procedure, shortened: as §2

[7] = tested on: ducksalad; experiment: Test B flood; type: in vivo, Heteranthera limosa; details: 250 g ai/ha, visual rating on 0 to 100 scale (0 no effect, 100 complete control), 13 to 15 days
Procedure, shortened: as §2

[8] = tested on: velvetleaf; experiment: Test A postemergence; type: in vivo, Abutilon theophrasti
Procedure, shortened: as §3

[9] = tested on: morningglory; experiment: Test A preemergence; type: in vivo, Ipomoea spp.
Procedure, shortened: as §3

[10] = tested on: pigweed; experiment: Test A preemergence; type: in vivo, Amaranthus retroflexus
Procedure, shortened: as §3

[11] = tested on: foxtail, giant; experiment: Test A postemergence; type: in vivo, Setaria faberii
Procedure, shortened: as §3

[12] = tested on: wheat; experiment: Test A postemergence; type: in vivo, Triticum aestivum
Procedure, shortened: as §3

[13] = tested on: barnyardgrass; experiment: Test C flooded paddy test; type: in vivo, Echinochloa crus-galli; details: Flood
Procedure, shortened: as §1

[14] = tested on: corn; experiment: Test A preemergence; type: in vivo, Zea mays
Procedure, shortened: as §3

[15] = tested on: velvetleaf; experiment: Test A preemergence; type: in vivo, Abutilon theophrasti
Procedure, shortened: as §3

[16] = tested on: morningglory; experiment: Test A postemergence; type: in vivo, Ipomoea spp.
Procedure, shortened: as §3

[17] = tested on: crabgrass, large; experiment: Test A postemergence; type: in vivo, Digitaria sanguinalis
Procedure, shortened: as §3

[18] = tested on: crabgrass, large; experiment: Test A preemergence; type: in vivo, Digitaria sanguinalis
Procedure, shortened: as §3

[19] = tested on: foxtail, giant; experiment: Test A preemergence; type: in vivo, Setaria faberii
Procedure, shortened: as §3

[20] = tested on: corn; experiment: Test A postemergence; type: in vivo, Zea mays
Procedure, shortened: as §3

[21] = tested on: barnyardgrass; experiment: Test A postemergence; type: in vivo, Echinochloa crus-galli
Procedure, shortened: as §3

[22] = tested on: rice; experiment: Test C flooded paddy test; type: in vivo, Oryza sativa; details: Flood
Procedure, shortened: as §1

[23] = tested on: sedge, umbrella; experiment: Test B flood; type: in vivo, Cyperus difformis; details: 250 g ai/ha, visual rating on 0 to 100 scale (0 no effect, 100 complete control), 13 to 15 days
Procedure, shortened: as §2

[24] = tested on: sedge, umbrella; experiment: Test C flooded paddy test; type: in vivo, Cyperus difformis; details: Flood
Procedure, shortened: as §1

[25] = 31 g ai/ha, scale 0 to 100 (0 no effect, 100 complete control)
[26] = 62 g ai/ha, scale 0 to 100 (0 no effect, 100 complete control)
[27] = preemergence, 125 g ai/ha, visual injury, 0 to 100 scale, approx. 10 days
[28] = preemergence, 500 g ai/ha, visual injury after approx. 10 days, 0 to 100 scale (0 no effect, 100 complete control)
[29] = Postemergence, 500 g ai/ha, visual rating after approx. 10 days, 0 to 100 scale (0 no effect, 100 complete control)
[30] = postemergence, 125 g ai/ha, about 10 days, visual rating on 0 to 100 scale (0 no effect, 100 complete control)
[31] = Preemergence, 1000 g ai/ha, 0 to 100 scale, 0 no effect, 100 complete control
[32] = Postemergence, 1000 g ai/ha, visual rating after approx. 10 days, 0 to 100 scale (0 no effect, 100 complete control)
[33] = Preemergence, 500 g ai/ha, 0 to 100 scale, 0 no effect, 100 complete control

CCc1cc(C(=O)NCC(F)(F)F)nn1Cc1ccnc(OCC(F)(F)F)c1 [Compound 106]
40: Plant response rating, Ducksalad [1, 25] | Velvetleaf plant response rating [8, 30] | Wheat plant response rating [12, 29]
100: Barnyardgrass plant response rating [3, 28] | Pigweed plant response rating [5, 29] | Morningglory plant response rating [9, 28] | Pigweed plant response rating [10, 27] | Pigweed plant response rating [10, 28] | Velvetleaf plant response rating [15, 28] | Morningglory plant response rating [16, 29] | Crabgrass, Large plant response rating [18, 27] | Crabgrass, Large plant response rating [18, 28] | Foxtail, Giant plant response rating [19, 27] | Foxtail, Giant plant response rating [19, 28]
30: Plant response rating, Barnyardgrass [2] | Wheat plant response rating [4, 28] | Morningglory plant response rating [9, 27] | Plant response rating, Barnyardgrass ([13]; 250 g ai/ha, scale 0 to 100) | Corn plant response rating [14, 28] | Corn plant response rating [20, 30]
70: Plant response rating, Ducksalad ([1]; 125 g ai/ha, scale 0 to 100) | Plant response rating, Ducksalad ([1]; 250 g ai/ha, scale 0 to 100) | Velvetleaf plant response rating [8, 29] | Plant response rating, Sedge, Umbrella [24, 25]
10: Wheat plant response rating [4, 27] | Wheat plant response rating [12, 30] | Velvetleaf plant response rating [15, 27]
0: Plant response rating, Barnyardgrass [13, 25] | Plant response rating, Barnyardgrass [13, 26] | Plant response rating, Rice [22, 25] | Plant response rating, Rice [22, 26] | Plant response rating, Rice ([22]; 125 g ai/ha, scale 0 to 100) | Plant response rating, Rice ([22]; 250 g ai/ha, scale 0 to 100)
50: Plant response rating, Ducksalad [1, 26] | Barnyardgrass plant response rating [3, 27] | Foxtail, Giant plant response rating [11, 30] | Morningglory plant response rating [16, 30] | Crabgrass, Large plant response rating [17, 30] | Barnyardgrass plant response rating [21, 30]
95: Plant response rating, Sedge, Umbrella ([24]; 125 g ai/ha, scale 0 to 100)
90: Pigweed plant response rating [5, 30] | Plant response rating, Ducksalad [7] | Crabgrass, Large plant response rating [17, 29] | Plant response rating, Sedge, Umbrella [23]
85: Plant response rating, Sedge, Umbrella [24, 26]
60: Corn plant response rating [20, 29]
98: Plant response rating, Sedge, Umbrella ([24]; 250 g ai/ha, scale 0 to 100)
80: Foxtail, Giant plant response rating [11, 29] | Barnyardgrass plant response rating [21, 29]
20: Plant response rating, Rice [6] | Plant response rating, Barnyardgrass ([13]; 125 g ai/ha, scale 0 to 100) | Corn plant response rating [14, 27]

CCCc1cc(C(=O)NC2CC2)nn1Cc1cccc(C(F)(F)F)c1 [Compound 30]
0: Plant response rating, Barnyardgrass [13, 25] | Plant response rating, Barnyardgrass [13, 26] | Plant response rating, Barnyardgrass ([13]; 125 g ai/ha, scale 0 to 100) | Plant response rating, Rice [22, 25] | Plant response rating, Rice [22, 26] | Plant response rating, Rice ([22]; 125 g ai/ha, scale 0 to 100) | Plant response rating, Rice ([22]; 250 g ai/ha, scale 0 to 100) | Plant response rating, Sedge, Umbrella [24, 25] | Plant response rating, Sedge, Umbrella [24, 26] | Plant response rating, Sedge, Umbrella ([24]; 125 g ai/ha, scale 0 to 100)
10: Wheat plant response rating [4, 31]
80: Plant response rating, Ducksalad ([1]; 125 g ai/ha, scale 0 to 100) | Plant response rating, Sedge, Umbrella ([24]; 250 g ai/ha, scale 0 to 100)
60: Plant response rating, Ducksalad [1, 25] | Morningglory plant response rating [9, 31]
70: Barnyardgrass plant response rating [21, 32]
20: Plant response rating, Barnyardgrass ([13]; 250 g ai/ha, scale 0 to 100) | Corn plant response rating [14, 31]
30: Pigweed plant response rating [10, 31] | Velvetleaf plant response rating [15, 31]
40: Wheat plant response rating [12, 32] | Corn plant response rating [20, 32]
100: Plant response rating, Ducksalad ([1]; 250 g ai/ha, scale 0 to 100) | Pigweed plant response rating [5, 32] | Velvetleaf plant response rating [8, 32] | Foxtail, Giant plant response rating [11, 32] | Morningglory plant response rating [16, 32] | Crabgrass, Large plant response rating [18, 31] | Foxtail, Giant plant response rating [19, 31]
90: Barnyardgrass plant response rating [3, 31] | Crabgrass, Large plant response rating [17, 32]

CCNC(=O)c1cc(C)n(Cc2cccc(OC(F)(F)F)c2)n1 [Compound 4]
60: Plant response rating, Ducksalad ([1]; 250 g ai/ha, scale 0 to 100) | Foxtail, Giant plant response rating [19, 33] | Plant response rating, Sedge, Umbrella ([24]; 250 g ai/ha, scale 0 to 100)
80: Pigweed plant response rating [5, 29]
50: Plant response rating, Ducksalad ([1]; 125 g ai/ha, scale 0 to 100) | Barnyardgrass plant response rating [3, 33] | Pigweed plant response rating [10, 27] | Crabgrass, Large plant response rating [17, 29]
70: Pigweed plant response rating [5, 30]
90: Morningglory plant response rating [16, 29] | Crabgrass, Large plant response rating [18, 33]
40: Plant response rating, Ducksalad [1, 26] | Crabgrass, Large plant response rating [18, 27] | Corn plant response rating [20, 29] | Barnyardgrass plant response rating [21, 29]
10: Velvetleaf plant response rating [8, 30] | Foxtail, Giant plant response rating [11, 30] | Velvetleaf plant response rating [15, 33] | Corn plant response rating [20, 30] | Barnyardgrass plant response rating ([21]; Postemergence, 125 g ai/ha, 0 to 100 scale, 0 no effect, 100 complete control)
30: Velvetleaf plant response rating [8, 29] | Foxtail, Giant plant response rating [11, 29] | Morningglory plant response rating [16, 30]
0: Plant response rating, Ducksalad [1, 25] | Barnyardgrass plant response rating [3, 27] | Wheat plant response rating [4, 27] | Morningglory plant response rating [9, 27] | Wheat plant response rating [12, 29] | Wheat plant response rating [12, 30] | Plant response rating, Barnyardgrass [13, 25] | Plant response rating, Barnyardgrass [13, 26] | Plant response rating, Barnyardgrass ([13]; 125 g ai/ha, scale 0 to 100) | Plant response rating, Barnyardgrass ([13]; 250 g ai/ha, scale 0 to 100) | Corn plant response rating [14, 33] | Corn plant response rating [14, 27] | Velvetleaf plant response rating [15, 27] | Foxtail, Giant plant response rating [19, 27] | Plant response rating, Rice [22, 25] | Plant response rating, Rice [22, 26] | Plant response rating, Rice ([22]; 125 g ai/ha, scale 0 to 100) | Plant response rating, Rice ([22]; 250 g ai/ha, scale 0 to 100) | Plant response rating, Sedge, Umbrella [24, 25] | Plant response rating, Sedge, Umbrella [24, 26] | Plant response rating, Sedge, Umbrella ([24]; 125 g ai/ha, scale 0 to 100)
20: Morningglory plant response rating [9, 33] | Crabgrass, Large plant response rating [17, 30]
100: Pigweed plant response rating [10, 33]
